Values joined by “and” are separate entries in the source; they are usually repeats but may differ in a detail not shown here. Identical values can stand only once. Counter-ions that a name gives are not always drawn.

One series has as its system C57Bl/6 mice. Kind of series: Straub Tail measurement. The class given is in vivo. The note with it: 10 mg/kg ip, scored 15 minutes after injection; day 23 of the UV exposure regimen. The protocol:
Straub Tail measurement was performed as described (Bilbey et al., 1960). Scoring was on a scale of 0-2 according to the angle of elevation of the tail from the horizontal plane (0=tail relaxed and no elevation; 1=tail is rigid and elevated 1-10° from horizontal; 1.5=11-45° elevation and rigidity at the base of the tail; 2=46-90° elevation and rigidity at the base of the tail). At each time point, each mouse was scored every 10 seconds for 1 minute and the final score was the average of these six values. Mice undergoing the six-week UV exposure regimen or mock treatment were scored prior to the start of the regimen, once per week during the regimen, and once per week for 2 weeks following cessation of UV/mock treatment. On day 23 of the regimen, after weekly Straub Tail scoring, mice were injected (intraperitoneal (ip)) with either 10 mg/kg naloxone hydrochloride (Sigma, St. Louis, Mo.) or saline. Mice underwent Straub Tail scoring again 15 minutes following injection.
Exogenous opioids produce a dose-dependent, μ-opioid receptor-mediated contraction of the sacrococcygeus dorsalis muscle at the tail base in rodents, resulting in rigidity and elevation of the tail, a phenomenon called “Straub Tail” (Bilbey et al., 1960). […]

The next series concerns K14-e/e and e/e mice. In words: Naloxone-precipitated symptoms of opiate withdrawal in forskolin plus rolipram treated mice. The class given is in vivo. Particulars: individual forskolin plus rolipram treated mice, naloxone 2 mg/kg; for Rearing: 25 min; for Jumping: events in 25 min; for Diarrhea: fecal pellets at 25 min; for Paw Tremor / Teeth Chatter / Wet Dog Shake / oming: occurrence per 15 sec interval over 25 min. As for the experimental part:
Female mice were treated with 40 μL of 20%-Forskolin extract daily and 40 μL of rolipram (Sigma) 20 μM in DMSO or vehicle control. Basal blood samples were collected at the beginning of each experiment. After treatment started, blood samples were collected once a week. After 4 weeks of continuous exposure to forskolin and rolipram or vehicle control, mice were injected with saline or naloxone and symptoms of opiate withdrawal were measured for 25 min post injection. Naloxone (St. Luis, Mo.) was diluted in saline at […] and was administrated to mice ˜200 μL, depending on the mass of each mouse (2 mg/kg). Symptoms assigned were wet dog shake (WDS), paw tremor, jumping, bouts of grooming, teeth chatter (TC), rearing and diarrhea. The occurrence in each 15 sec interval of WDS, paw tremor, bouts of grooming and teeth chatter (TC) was used to quantify these parameters. The number of fecal pellets and the individual jumping events at the end of 25 min were quantified for these two factors.
Finally, the functional significance of systemic β-endorphin elevations upon cAMP activation was tested by carrying out behavioral studies on forskolin plus rolipram treated mice.

Turning to `C=CCN1CC[C@]23c4c5ccc(O)c4O[C@H]2C(=O)CC[C@@]3(O)[C@H]1C5` [naloxone, naloxone hydrochloride], the “Straub Tail score” value in the series on C57Bl/6 mice is on record as “reversed the Straub Tail phenotype”. Further, in the series on K14-e/e and e/e mice (K14:e/e), the Rearing was 0 and the Jumping turned out to be 0. In the series with K14-e/e and e/e mice (K14:e/e, hydrochloride), the Diarrhea was 0 and 1; the “Paw Tremor” value was 0 and 2; the “Teeth Chatter” value is 80 and 107; the “Wet Dog Shake” value is 145 and 135. Besides, the oming in the series with K14-e/e and e/e mice (K14:e/e, hydrochloride) is 17 and 2. In the series on K14-e/e and e/e mice (e/e, hydrochloride), the Rearing was 0 and 18; the Diarrhea was 1 and 2; the “Paw Tremor” value was 4 and 34; the “Teeth Chatter” value was 116 and 75. Moreover, in the series on K14-e/e and e/e mice (e/e, hydrochloride), the “Wet Dog Shake” value is 120 and 76; the oming is 13 and 19. Besides, the Jumping in the series with K14-e/e and e/e mice (e/e) is given as 0.
